Source: patent US9732119B2, “Immunomodulators” (BRISTOL-MYERS SQUIBB COMPANY, priority 2014, dated 2017)
Positions of bridges follow the written chain, without caps; N, C: chain ends. Non-standard residues stand in square brackets, D forms with d. Residues, ends and D or L forms follow the SMILES beside them. Trp(1-CH2COOH) = N[C@@H](Cc1cn(CC(=O)O)c2ccccc12)C(=O)O; Phe(4-Me) = Cc1ccc(C[C@H](N)C(=O)O)cc1; Hyp = O=C(O)[C@@H]1C[C@@H](O)CN1; Aad = N[C@@H](CCCC(=O)O)C(=O)O; NMeNle = CCCC[C@H](NC)C(=O)O; dOrn = NCCC[C@@H](N)C(=O)O; Pip = O=C(O)[C@@H]1CCCCN1; NMeA = CN[C@@H](C)C(=O)O; Orn = NCCC[C@H](N)C(=O)O; Dab = NCC[C@H](N)C(=O)O; Dap = NC[C@H](N)C(=O)O; Ava = NCCCCC(=O)O

target: T1, PD-1-Ig binding to PD-L1-TVMV-His (PD-L1-His) (Homo sapiens, UniProt Q9NZQ7); assay: PD-1/PD-L1 Homogenous Time-Resolved Fluorescence (HTRF) binding assay; settings: PD-1-Ig (20 nM) / PD-L1-His (10 nM); range classes
T1 construct: hPDL1(19-239)-TVMV-His; made in house; host or cells: HEK293T cells
In short: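 In dPBS with 0.1% BSA and 0.05% Tween-20, inhibitors were preincubated 15 min with 10 nM PD-L1-His before 20 nM PD-1-Ig was added for another 15 min. Binding read by time-resolved FRET between Eu-cryptate anti-Ig (1 nM) and APC anti-His (20 nM).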

T1 sequence (Q9NZQ7 with tags, fused parts or gaps): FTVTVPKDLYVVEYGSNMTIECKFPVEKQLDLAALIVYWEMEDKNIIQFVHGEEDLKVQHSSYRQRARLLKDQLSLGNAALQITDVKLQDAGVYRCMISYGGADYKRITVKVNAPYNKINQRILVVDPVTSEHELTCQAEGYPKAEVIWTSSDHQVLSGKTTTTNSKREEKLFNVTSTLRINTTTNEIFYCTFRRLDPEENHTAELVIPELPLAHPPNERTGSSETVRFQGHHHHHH

SMILES	IC50 [nM]
CCCC[C@H]1C(=O)N(C)[C@@H](CCCC)C(=O)N[C@@H](CC(C)C)C(=O)NCCC[C@@H](N)C(=O)N[C@@H](Cc2ccc(C)cc2)C(=O)N2CCCC[C@H]2C(=O)N[C@@H](CC(N)=O)C(=O)N2CCC[C@H]2C(=O)N[C@@H](CN)C(=O)N[C@@H](CCC(=O)O)C(=O)N2C[C@H](O)C[C@H]2C(=O)N[C@@H](Cc2c[nH]c3ccccc23)C(=O)N[C@@H](CCN)C(=O)N[C@@H](Cc2cn(CC(=O)O)c3ccccc23)C(=O)N1C [Example 10560] (H-[dOrn][Phe(4-Me)][Pip]NP[Dap]E[Hyp]W[Dab][Trp(1-CH2COOH)][NMeNle][NMeNle]L; lactam 1-C)	10 to 99
CCCC[C@H]1C(=O)N(C)[C@@H](CCCC)C(=O)N[C@@H](CC(C)C)C(=O)N[C@@H](C)C(=O)NCC(=O)N[C@@H](Cc2ccc(O)cc2)C(=O)N(C)[C@@H](C)C(=O)N[C@@H](CC(N)=O)C(=O)N2CCC[C@H]2C(=O)N[C@@H](CN)C(=O)N[C@@H](CC(C)C)C(=O)N2C[C@H](O)C[C@H]2C(=O)N[C@@H](Cc2c[nH]c3ccccc23)C(=O)N[C@@H](CCN)C(=O)N[C@@H](Cc2c[nH]c3ccccc23)C(=O)N1C [Example 5006] (cyclo(AGY[NMeA]NP[Dap]L[Hyp]W[Dab]W[NMeNle][NMeNle]L))	10 to 99
CCCC[C@H]1C(=O)N(C)[C@@H](CCCC)C(=O)N[C@@H](CC(C)C)C(=O)N[C@H](C(N)=O)CCCC(=O)N[C@@H](Cc2ccc(C)cc2)C(=O)N2CCCC[C@H]2C(=O)N[C@@H](CC(N)=O)C(=O)N2CCC[C@H]2C(=O)N[C@@H](CN)C(=O)N[C@@H](CCC(=O)O)C(=O)N2C[C@H](O)C[C@H]2C(=O)N[C@@H](Cc2c[nH]c3ccccc23)C(=O)N[C@@H](CCN)C(=O)N[C@@H](Cc2cn(CC(=O)O)c3ccccc23)C(=O)N1C [Example 10521] ([Phe(4-Me)][Pip]NP[Dap]E[Hyp]W[Dab][Trp(1-CH2COOH)][NMeNle][NMeNle]L[Aad]-NH2; lactam N-14)	10 to 99
CCCC[C@H]1C(=O)N(C)[C@@H](CCCC)C(=O)N[C@@H](CC(C)C)C(=O)N[C@H](C(N)=O)CCCC(=O)N[C@@H](Cc2ccc(OC)cc2)C(=O)N2CCCC[C@H]2C(=O)N[C@@H](CC(N)=O)C(=O)N2CCC[C@H]2C(=O)N[C@@H](CN)C(=O)N[C@@H](CC(C)C)C(=O)N2C[C@H](O)C[C@H]2C(=O)N[C@@H](Cc2c[nH]c3ccccc23)C(=O)N[C@@H](CCN)C(=O)N[C@@H](Cc2cn(CC(=O)O)c3ccccc23)C(=O)N1C [Example 10525] (Y(Me)[Pip]NP[Dap]L[Hyp]W[Dab][Trp(1-CH2COOH)][NMeNle][NMeNle]L[Aad]-NH2; lactam N-14)	10 to 99
CCCC[C@H]1C(=O)N(C)[C@@H](CCCC)C(=O)N[C@@H](CC(C)C)C(=O)N[C@H](C(N)=O)CCCC(=O)N[C@@H](Cc2ccc(C)cc2)C(=O)N2CCCC[C@H]2C(=O)N[C@@H](CC(=O)O)C(=O)N2CCC[C@H]2C(=O)N[C@@H](CN)C(=O)N[C@@H](CC(C)C)C(=O)N2C[C@H](O)C[C@H]2C(=O)N[C@@H](Cc2c[nH]c3ccccc23)C(=O)N[C@@H](CCN)C(=O)N[C@@H](Cc2cn(CC(=O)O)c3ccccc23)C(=O)N1C [Example 10553] ([Phe(4-Me)][Pip]DP[Dap]L[Hyp]W[Dab][Trp(1-CH2COOH)][NMeNle][NMeNle]L[Aad]-NH2; lactam N-14)	10 to 99
CCCC[C@H]1C(=O)N(C)[C@@H](CCCC)C(=O)N[C@@H](CC(C)C)C(=O)N[C@H](C(=O)NCC(N)=O)CNCC(=O)N[C@@H](Cc2ccc(O)cc2)C(=O)N(C)[C@@H](C)C(=O)N[C@@H](CC(N)=O)C(=O)N2CCC[C@H]2C(=O)N[C@@H](Cc2cnc[nH]2)C(=O)N[C@@H](CC(C)C)C(=O)N2CCC[C@H]2C(=O)N[C@@H](Cc2c[nH]c3ccccc23)C(=O)N[C@@H](CO)C(=O)N[C@@H](Cc2cn(CC(=O)O)c3ccccc23)C(=O)N1C [Example 10006]	10 to 99
CCCC[C@H]1C(=O)N(C)[C@@H](CCCC)C(=O)N[C@@H](CC(C)C)C(=O)N[C@H](C(N)=O)CNCC(=O)N[C@@H](Cc2ccc(F)cc2)C(=O)N2CCCC[C@H]2C(=O)N[C@@H](CC(=O)O)C(=O)N2CCC[C@H]2C(=O)N[C@@H](CCC(N)=O)C(=O)N[C@@H](CC(C)C)C(=O)N2C[C@H](O)C[C@H]2C(=O)N[C@@H](Cc2c[nH]c3ccccc23)C(=O)N[C@@H](CC(N)=O)C(=O)N[C@@H](Cc2cn(CC(=O)O)c3ccccc23)C(=O)N1C [Example 9038]	1 to 9.9
CCCC[C@H]1C(=O)N(C)[C@@H](CCCC)C(=O)N[C@@H](CC(C)C)C(=O)N[C@H](C(=O)NCC(N)=O)CNCC(=O)N[C@@H](Cc2ccc(O)cc2)C(=O)N(C)[C@@H](C)C(=O)N[C@@H](CC(N)=O)C(=O)N2CCC[C@H]2C(=O)N[C@@H](Cc2cnc[nH]2)C(=O)N[C@@H](CCC(N)=O)C(=O)N2C[C@H](O)C[C@H]2C(=O)N[C@@H](Cc2c[nH]c3ccccc23)C(=O)NCC(=O)N[C@@H](Cc2c[nH]c3ccccc23)C(=O)N1C [Example 10017]	1 to 9.9
CCCC[C@H]1C(=O)N(C)[C@@H](CCCC)C(=O)N[C@@H](CC(C)C)C(=O)N[C@H](C(=O)NCC(N)=O)CCCC(=O)N[C@@H](Cc2ccc(O)cc2)C(=O)N2CCCC[C@H]2C(=O)N[C@@H](CC(N)=O)C(=O)N2CCC[C@H]2C(=O)N[C@@H](CN)C(=O)N[C@@H](CCC(=O)O)C(=O)N2C[C@H](O)C[C@H]2C(=O)N[C@@H](Cc2c[nH]c3ccccc23)C(=O)N[C@@H](CCN)C(=O)N[C@@H](Cc2cn(CC(=O)O)c3ccccc23)C(=O)N1C [Example 10508] (Y[Pip]NP[Dap]E[Hyp]W[Dab][Trp(1-CH2COOH)][NMeNle][NMeNle]L[Aad]G-NH2; lactam N-14)	10 to 99

The next lines start with the values.

IC50 [nM]	SMILES
1 to 9.9	CCCC[C@H]1C(=O)N(C)[C@@H](CCCC)C(=O)N[C@@H](CC(C)C)C(=O)N[C@H](C(N)=O)COCC(=O)N[C@@H](Cc2ccc(OC)cc2)C(=O)N2CCCC[C@H]2C(=O)N[C@@H](CC(N)=O)C(=O)N2CCC[C@H]2C(=O)N[C@@H](CN)C(=O)N[C@@H](CCC(=O)O)C(=O)N2C[C@H](O)C[C@H]2C(=O)N[C@@H](Cc2c[nH]c3ccccc23)C(=O)N[C@@H](CCN)C(=O)N[C@@H](Cc2cn(CC(=O)O)c3ccccc23)C(=O)N1C [Example 10530]
1 to 9.9	CCCC[C@H]1C(=O)N(C)[C@@H](CCCC)C(=O)N[C@@H](CC(C)C)C(=O)N[C@H](C(N)=O)CNCC(=O)N[C@@H](Cc2ccc(O)cc2)C(=O)N2CCCC[C@H]2C(=O)N[C@@H](CC(N)=O)C(=O)N2CCC[C@H]2C(=O)N[C@@H](CN)C(=O)N[C@@H](CC(C)C)C(=O)N2C[C@H](O)C[C@H]2C(=O)N[C@@H](Cc2c[nH]c3ccccc23)C(=O)N[C@@H](CCN)C(=O)N[C@@H](Cc2cn(CC(=O)O)c3ccccc23)C(=O)N1C [Example 1038]
1 to 9.9	CCCC[C@H]1C(=O)N(C)[C@@H](CCCC)C(=O)N[C@@H](CC(C)C)C(=O)NCCC[C@@H](N)C(=O)N[C@@H](Cc2ccc(OC)cc2)C(=O)N2CCCC[C@H]2C(=O)N[C@@H](CC(N)=O)C(=O)N2CCC[C@H]2C(=O)N[C@@H](CN)C(=O)N[C@@H](CCC(=O)O)C(=O)N2C[C@H](O)C[C@H]2C(=O)N[C@@H](Cc2c[nH]c3ccccc23)C(=O)N[C@@H](CCN)C(=O)N[C@@H](Cc2cn(CC(=O)O)c3ccccc23)C(=O)N1C [Example 10569] (H-[dOrn]Y(Me)[Pip]NP[Dap]E[Hyp]W[Dab][Trp(1-CH2COOH)][NMeNle][NMeNle]L; lactam 1-C)
1 to 9.9	CCCC[C@H]1C(=O)N(C)[C@@H](CCCC)C(=O)N[C@@H](CC(C)C)C(=O)NCCCCC(=O)N[C@@H](Cc2ccc(C)cc2)C(=O)N2CCCC[C@H]2C(=O)N[C@@H](CC(N)=O)C(=O)N2CCC[C@H]2C(=O)N[C@@H](CN)C(=O)N[C@@H](CC(C)C)C(=O)N2C[C@H](O)C[C@H]2C(=O)N[C@@H](Cc2c[nH]c3ccccc23)C(=O)N[C@@H](CCN)C(=O)N[C@@H](Cc2cn(CC(=O)O)c3ccccc23)C(=O)N1C [Example 10540] (cyclo([Ava][Phe(4-Me)][Pip]NP[Dap]L[Hyp]W[Dab][Trp(1-CH2COOH)][NMeNle][NMeNle]L))
1 to 9.9	CCCC[C@H]1C(=O)N(C)[C@@H](CCCC)C(=O)N[C@@H](CCC(=O)O)C(=O)N[C@H](C(N)=O)CNCC(=O)N[C@@H](Cc2ccc(O)cc2)C(=O)N2CCCC[C@H]2C(=O)N[C@@H](CC(N)=O)C(=O)N2CCC[C@H]2C(=O)N[C@@H](Cc2c[nH]cn2)C(=O)N[C@@H](CCC(N)=O)C(=O)N2C[C@H](O)C[C@H]2C(=O)N[C@@H](Cc2c[nH]c3ccccc23)C(=O)N[C@@H](C)C(=O)N[C@@H](Cc2cn(CC(=O)O)c3ccccc23)C(=O)N1C [Example 9056]
1 to 9.9	CCCC[C@H]1C(=O)N(C)[C@@H](CCCC)C(=O)N[C@@H](CC(C)C)C(=O)NCCC[C@H](N)C(=O)N[C@@H](Cc2ccc(OC)cc2)C(=O)N2CCCC[C@H]2C(=O)N[C@@H](CC(N)=O)C(=O)N2CCC[C@H]2C(=O)N[C@@H](CN)C(=O)N[C@@H](CCC(=O)O)C(=O)N2C[C@H](O)C[C@H]2C(=O)N[C@@H](Cc2c[nH]c3ccccc23)C(=O)N[C@@H](CCN)C(=O)N[C@@H](Cc2cn(CC(=O)O)c3ccccc23)C(=O)N1C [Example 10551] (H-[Orn]Y(Me)[Pip]NP[Dap]E[Hyp]W[Dab][Trp(1-CH2COOH)][NMeNle][NMeNle]L; lactam 1-C)
1 to 9.9	CCCC[C@H]1C(=O)N(C)[C@@H](CCCC)C(=O)N[C@@H](CC(C)C)C(=O)N[C@H](C(N)=O)CNCC(=O)N[C@@H](Cc2ccc(F)cc2)C(=O)N2CCCC[C@H]2C(=O)N[C@@H](CC(N)=O)C(=O)N2CCC[C@H]2C(=O)N[C@@H](CCC(N)=O)C(=O)N[C@@H](CCC(N)=O)C(=O)N2C[C@H](O)C[C@H]2C(=O)N[C@@H](Cc2c[nH]c3ccccc23)C(=O)N[C@@H](CC(N)=O)C(=O)N[C@@H](Cc2cn(CC(=O)O)c3ccccc23)C(=O)N1C [Example 9033]
1 to 9.9	CCCC[C@H]1C(=O)N(C)[C@@H](CCCC)C(=O)NC(CC(C)C)C(=O)N[C@H](C(N)=O)CNCC(=O)N[C@@H](Cc2ccc(O)cc2)C(=O)N(C)[C@@H](C)C(=O)N[C@@H](CC(N)=O)C(=O)N2CCC[C@H]2C(=O)N[C@@H](CN)C(=O)N[C@@H](CC(C)C)C(=O)N2C[C@H](O)C[C@H]2C(=O)N[C@@H](Cc2c[nH]c3ccccc23)C(=O)N[C@@H](CCN)C(=O)N[C@@H](Cc2cn(CC(=O)O)c3ccccc23)C(=O)N1C (some centres unmarked) [Example 1034]
